“Also recorded” adds a separate entry of the source.
How the values were obtained:
[1] = system: radial artery rings; type: cell-based, Human
[2] = system: radial artery tissue; experiment: spontaneous contractility of radial artery tissue; type: cell-based, Human; details: radial artery tissue (FIG. 11A)
[3] = system: mammary artery samples; type: cell-based, Human
[4] = system: vascular smooth muscle; type: cell-based, Human
[5] = system: endothelial mediated relaxation

| Compound | effect on angiotensin II-induced contraction [1] | effect on spontaneous contraction [2] | concentration most effective at inhibiting adrenaline-mediated contraction [1] | effect on dose response curves to adrenaline, angiotensin II or PGF2α [1] | effect on subsequent vasoconstrictor responses (in words) [1] | incubation time at which toxin is effective in inhibiting adrenaline-induced vasoconstriction [1] | inhibition of contraction, depending on the vasoconstrictor [1] | concentration most effective at inhibiting angiotensin II induced contraction [3] | optimal concentration most effective at reducing contractile activity [4] | endothelial mediated relaxation after incubation with toxin [5] |
| --- | --- | --- | --- | --- | --- | --- | --- | --- | --- | --- |
| CC(COc1ccccc1)N(CCCl)Cc1ccccc1 (stereo not shown) [phenoxybenzamine, Phenoxybenzamine, reference compound] | no inhibitory effect | no effect; also recorded: lack of effect | – | – | – | – | – | – | – | – |
| cholera toxin | – | – | 25 µg/mL | inhibited the contraction | inhibit the maximal contraction force produced and the sensitivity | 30 min | 15-50% | 0.57 µM | about 0.6 μM; also recorded: about 51 μg/ml | no impairment |
| pertussis toxin | – | – | 50 µg/mL | inhibited the contraction | inhibit the maximal contraction force produced and the sensitivity | 60 min | 20-60% | – | – | no impairment |
